Laboratory results reported in patent publication US11253634B2, “Cationic steroidal antibiotic compositions for the treatment of dermal tissue” (BRIGHAM YOUNG UNIVERSITY, priority 2016, dated 2022).
In brackets after ≈: the same amount, converted by molar mass. Values belong to the molecule of their own block, whether it stands above or below them.

Tests used:
[1] = system: primary human MSC cells; assay: Gene expression (q-PCR, inflammation-related mRNA panel) after CSA treatment of primary cells; format: cell-based; settings: 8 hours treatment, CSA-13 at 5.0 μM; for Fold Regulation, IL1A: gene IL1A (Interleukin-1 alpha); for Fold Regulation, IL1A / Fold Regulation, IL1B / Fold Regulation, IRAK2 / Fold Regulation, NFKBIA / Fold Regulation, TLR2 / Fold Regulation, TLR4 / Fold Regulation, TLR6 / Fold Regulation, TLR8 / Fold Regulation, TLR9 / Fold Regulation, TNF / Fold Regulation, TNFRSF1A: q-PCR; for Fold Regulation, IL1B: gene IL1B (Interleukin-1 beta); for Fold Regulation, IRAK2: gene IRAK2 (Interleukin-1 receptor-associated kinase 2); for Fold Regulation, NFKB1: gene NFKB1, q-PCR; for Fold Regulation, NFKB2: gene NFKB2, q-PCR; for Fold Regulation, NFKBIA: gene NFKBIA; for Fold Regulation, TLR2: gene TLR2 (Toll-like receptor 2); for Fold Regulation, TLR4: gene TLR4 (Toll-like receptor 4); for Fold Regulation, TLR6: gene TLR6 (Toll-like receptor 6); for Fold Regulation, TLR8: gene TLR8 (Toll-like receptor 8); for Fold Regulation, TLR9: gene TLR9 (Toll-like receptor 9); for Fold Regulation, TNF: gene TNF (Tumor necrosis factor); for Fold Regulation, TNFRSF1A: gene TNFRSF1A
[2] = system: IL-6; assay: Kidney IL-6 levels in P. aeruginosa pneumonia model; format: in vivo, C57/BL6 mice; settings: 24 hours post-infection
Source text: IL-6 is a marker of systemic inflammation. Female C57/BL6 mice were infected in the respiratory tract with a non-lethal dose of P. aeruginosa as a model of pneumonia.

[3] = system: Pseudomonas aeruginosa; assay: MIC/MBC against mixed-species biofilms: P. aeruginosa; format: cell-based; settings: mixed-species biofilms grown 22 hours, 20 hours of treatment
Procedure: (§1) Several CSA compounds were tested against Pseudomonas aeruginosa and Staphylococcus aureus mixed-species biofilms grown for an initial 22 hours and subjected to 20 hours of treatment.

[4] = system: Staphylococcus aureus; assay: MIC/MBC against mixed-species biofilms: S. aureus; format: cell-based; settings: mixed-species biofilms grown 22 hours, 20 hours of treatment
Procedure: as §1

[5] = system: Staphylococcus aureus (10); assay: Broth microdilution susceptibility testing, S. aureus isolates; format: cell-based; settings: unit inferred, unit assumed
Procedure: (§2) CSA-131 was tested in vitro against a set of clinical isolates representing bacterial species commonly associated with hospital-acquired infections. Antimicrobial susceptibility testing for 74 clinical isolates was performed.

[6] = system: 74 clinical isolates (All); assay: Broth microdilution susceptibility testing, all clinical isolates; format: cell-based; settings: All (74) isolates; no unit in column head (MIC levels of table in μg/ml)
Procedure: as §2

[7] = system: Non-fermenters (22); assay: Broth microdilution susceptibility testing, non-fermenter isolates; format: cell-based, A. baumannii species complex, P. aeruginosa, S. maltophilia; settings: unit inferred, unit assumed
Procedure: as §2

[8] = system: Streptococcus Pneumoniae (10); assay: Broth microdilution susceptibility testing, S. pneumoniae isolates; format: cell-based; settings: unit inferred, unit assumed
Procedure: as §2

[9] = system: Haemophilus spp. (10); assay: Broth microdilution susceptibility testing, Haemophilus spp. isolates; format: cell-based, H. influenza and H. parainfluenzae; settings: unit inferred, unit assumed
Procedure: as §2

[10] = system: Enterobacteriaceae (22); assay: Broth microdilution susceptibility testing, Enterobacteriaceae isolates; format: cell-based; settings: unit inferred, unit assumed
Procedure: as §2

[11] = Solubility of CSA-131 salt in cyanoacrylate; format: physicochemical
Procedure: CSA-131 (bis-DNS salt) was used in this Example. This material is a stable, colorless solid and is insoluble in cyanoacrylate. To ensure uniform distribution of CSA-131 in the cyanoacrylate polymer, the solid was micronized using a jet mill to give an average particle size of 200 nm. The resulting powder was added to cyanoacrylate to give a 5% (w/w) mixture, which was vigorously agitated. No immediate change in viscosity was observed, and the mixture remained non-viscous for more than 15 min.

Structure (SMILES): CCCCCCCCOC(=O)CC[C@@H](C)[C@H]1CC[C@H]2[C@@H]3[C@H](OC(=O)CCN)C[C@@H]4C[C@H](OC(=O)CCN)CC[C@]4(C)[C@H]3C[C@H](OC(=O)CCN)[C@]12C [CSA-44]
Fold Regulation, IL1A [1]: −6.0325 fold
Fold Regulation, IL1B [1]: −28.5329 fold
Fold Regulation, IRAK2 [1]: −31.8021 fold
Fold Regulation, NFKB1 [1]: −3.2891 fold
Fold Regulation, NFKB2 [1]: −2.2766 fold
Fold Regulation, NFKBIA [1]: −52.206 fold
Fold Regulation, TLR2 [1]: −15.7179 fold
Fold Regulation, TLR4 [1]: −2.977 fold
Fold Regulation, TLR6 [1]: −2.392 fold
Fold Regulation, TLR8 [1]: −8.2256 fold
Fold Regulation, TLR9 [1]: −1.8905 fold
Fold Regulation, TNF [1]: −25.9588 fold
Fold Regulation, TNFRSF1A [1]: −2.2461 fold

Structure (SMILES): CCCCCCCCNCCC[C@@H](C)[C@H]1CC[C@H]2[C@@H]3[C@H](OCCCN)C[C@@H]4C[C@H](OCCCN)CC[C@]4(C)[C@H]3C[C@H](OCCCN)[C@]12C [CSA-13]
Effect of treatment on kidney IL-6 levels [2]: significantly reduced

MIC P. aeruginosa [3]: 50 µg/mL
MIC S. aureus [4]: 6.25 µg/mL
Structure (SMILES): CC(CCCNCCCNCCCN)C1CCC2C3C(OCCCN)CC4CC(OCCCN)CCC4(C)C3CC(OCCCN)C12C.Cl.Cl.Cl.Cl.Cl.Cl (centres unmarked) [CSA-54]
MBC P. aeruginosa [3]: 100 µg/mL
MBC S. aureus [4]: 25 µg/mL

MIC P. aeruginosa [3]: 3.125 µg/mL (≈ 4.18 µM)
MIC S. aureus [4]: 1.56 µg/mL (≈ 2.09 µM)
Structure (SMILES): CCCCCCCCCCCCCNCCC[C@@H](C)[C@H]1CC[C@H]2[C@@H]3[C@H](OCCCN)C[C@@H]4C[C@H](OCCCN)CC[C@]4(C)[C@H]3C[C@H](OCCCN)[C@]12C [CSA-138]
MBC P. aeruginosa [3]: 6.25 µg/mL (≈ 8.36 µM)
MBC S. aureus [4]: 3.125 µg/mL (≈ 4.18 µM)

MIC P. aeruginosa [3]: >200 µg/mL
MIC S. aureus [4]: 50 µg/mL
Structure (SMILES): CC(O)C1CCC2C3C(OCCCN)CC4CC(OCCCN)CCC4(C)C3CC(OCCCN)C12C.Cl.Cl.Cl (centres unmarked) [CSA-11]
MBC P. aeruginosa [3]: >200 µg/mL
MBC S. aureus [4]: 50 µg/mL

MIC P. aeruginosa [3]: 12.5 µg/mL (≈ 16.7 µM)
MIC S. aureus [4]: 3.125 µg/mL (≈ 4.18 µM)
Structure (SMILES): CCCCCCCCCOC(=O)CC[C@@H](C)[C@H]1CC[C@H]2[C@@H]3[C@H](OC(=O)CCN)C[C@@H]4C[C@H](OC(=O)CCN)CC[C@]4(C)[C@H]3C[C@H](OC(=O)CCN)[C@]12C [CSA-145]
MBC P. aeruginosa [3]: 50 µg/mL (≈ 66.8 µM)
MBC S. aureus [4]: 3.125 µg/mL (≈ 4.18 µM)

MIC P. aeruginosa [3]: 6.25 µg/mL
MIC S. aureus [4]: 1.56 µg/mL
Structure (SMILES): CCCCCN(CCCCC)CCCC(C)C1CCC2C3C(OCCCN)CC4CC(OCCCN)CCC4(C)C3CC(OCCCN)C12C.Cl.Cl.Cl.Cl (centres unmarked) [CSA-90]
MBC P. aeruginosa [3]: 6.25 µg/mL
Fold Regulation, IL1A [1]: −6.96 fold
Fold Regulation, IL1B [1]: −3.6734 fold
Fold Regulation, IRAK2 [1]: −52.0069 fold
Fold Regulation, NFKB1 [1]: −4.718 fold
Fold Regulation, NFKB2 [1]: −2.5474 fold
Fold Regulation, NFKBIA [1]: −26.0352 fold
Fold Regulation, TLR2 [1]: −13.6933 fold
Fold Regulation, TLR4 [1]: −3.4278 fold
Fold Regulation, TLR6 [1]: −2.0885 fold
Fold Regulation, TLR8 [1]: −4.1972 fold
Fold Regulation, TLR9 [1]: −1.8613 fold
Fold Regulation, TNF [1]: −4.8514 fold
Fold Regulation, TNFRSF1A [1]: −7.3196 fold
MBC S. aureus [4]: 1.56 µg/mL

MIC P. aeruginosa [3]: 12.5 µg/mL (≈ 16.4 µM)
MIC S. aureus [4]: 3.125 µg/mL (≈ 4.1 µM)
Structure (SMILES): CCCCCCCCCCOC(=O)CC[C@@H](C)[C@H]1CC[C@H]2[C@@H]3[C@H](OC(=O)CCN)C[C@@H]4C[C@H](OC(=O)CCN)CC[C@]4(C)[C@H]3C[C@H](OC(=O)CCN)[C@]12C [CSA-144]
MBC P. aeruginosa [3]: 50 µg/mL (≈ 65.6 µM)
MBC S. aureus [4]: 3.125 µg/mL (≈ 4.1 µM)

MIC P. aeruginosa [3]: 25 µg/mL
MIC S. aureus [4]: 3.125 µg/mL
Structure (SMILES): CC(CCCO)C1CCC2C3C(OCCCN)CC4CC(OCCCN)CCC4(C)C3CC(OCCCN)C12C.Cl.Cl.Cl (centres unmarked) [CSA-8]
MBC P. aeruginosa [3]: 100 µg/mL
MBC S. aureus [4]: 6.25 µg/mL

Structure (SMILES): CCCCCCCCCCCCNCCC[C@@H](C)[C@H]1CC[C@H]2[C@@H]3[C@H](OCCCN)C[C@@H]4C[C@H](OCCCN)CC[C@]4(C)[C@H]3C[C@H](OCCCN)[C@]12C.Cl.Cl.Cl.Cl [CSA-131]
MIC50 [5]: 2 µg/mL
MIC90 [5]: 2 µg/mL
MIC50 [6]: 4
MIC90 [6]: 8
MIC50 [7]: 4 µg/mL
MIC90 [7]: 4 µg/mL
MIC50 [8]: 4 µg/mL
MIC90 [8]: 4 µg/mL
MIC50 [9]: 8 µg/mL
MIC90 [9]: 8 µg/mL
MIC50 [10]: 4 µg/mL
MIC90 [10]: 4 µg/mL

Solubility in cyanoacrylate [11]: insoluble
Structure (SMILES): CCCCCCCCCCCCNCCCC(C)C1CCC2C3C(OCCCN)CC4CC(OCCCN)CCC4(C)C3CC(OCCCN)C12C.O=S(=O)(O)c1cccc2c(S(=O)(=O)O)cccc12.O=S(=O)(O)c1cccc2c(S(=O)(=O)O)cccc12 (centres unmarked) [CSA-131 (bis-DNS salt)]
